SMILES strings stand for the structures.

This experiment addresses HIV Reverse Transcriptase (HIV-RT) (Human immunodeficiency virus type 1 group M subtype B, UniProt P04585). Nature of the experiment: primer extension assay using HIV Reverse Transcriptase after dry-storage of the inhibitor, read out by FCS. It counts as biochemical. As to conditions: stored in a desiccator overnight at room-temperature, reaction 40°C, 2 min. The protocol: The method, according to claim 1 was used for a primer extension assay using HIV Reverse Transcriptase (HIV-RT). Precoating the assay plate: 1 µl aliquots of 0.1% (w/v) aqueous solution of HBC (2-hydroxypropyl-β-cyclodextrin) was pipetted into the wells of a nanotiter plate and subjected to a flow of nitrogen gas until all the solvent (water) was evaporated. […] As a control, a section of the nanotiter plate was not coated with HBC. The plate was subsequently loaded with 1 µl (1 mg/ml) of the HIV Reverse Transcriptase Inhibitor AZT (3'Azido-3'deoxythymidine) contained in 50 mM DMSO/ 10 mM NaCl. The solvent (DMSO/water) evaporated by exposure to a flow of nitrogen gas at room-temperature. As a control, some wells of the nanotiter plate (coated and non-coated) were not charged with AZT. The plates were stored in a desiocator overnight at room-temperature.
The primer extension assay was performed by pipetting 900 nanoliter of a reaction mix containing: 2 pmol TMR-lablled 20 base oligo deoxynucleotide anneald to a 200 base RNA-template (gag region of the HIV genome), 50 mM Tris-HCl pH 8.2, dissolved, 50 mM NaCl, 1 mM of each dNTP. The nanotiter plate was incubated at 40°C for 2 min and the extension reaction stopped by the addition of 100 nanoliter 0.5 M EDTA. The primer extension products were analyzed by FCS.
• 1. […]

With `Cc1cn([C@H]2C[C@H](N=[N+]=[N-])[C@@H](CO)O2)c(=O)[nH]c1=O` [AZT, 3'Azido-3'deoxythymidine], the Primer extension entry runs as follows: (AZT 1 µl (1 mg/ml) dried in nanotiter plate wells not coated with HBC) “only partially inhibited”; (AZT 1 µl (1 mg/ml) dried in nanotiter plate wells precoated with HBC (1 µl of 0.1% w/v)) “inhibited”.

Values taken from patent EP0947820A2, “Method for sample preparation” (Evotec BioSystems GmbH, priority 1998, dated 1999).
